According to patent US4118561A, “7-(Substituted)-7H-pyrrolo[3,2-f]quinazoline-1,3-diamines” (priority 1977, dated 1978):
≈ marks a conversion by molar mass, not a printed value. Read-outs that look alike come from different tables or passages of the source.

Legend:
[1] = test system: P. vulgaris 6896; assay: In vitro antibacterial activity (MIC), P. vulgaris 6896; conditions: Proteus vulgaris, 6896, 18 h
[2] = test system: E. coli 9637; assay: In vitro antibacterial activity (MIC), E. coli 9637; conditions: Escherichia coli, 9637, 18 h
[3] = test system: N. catarrhalis 8193; assay: In vitro antibacterial activity (MIC), N. catarrhalis 8193; conditions: 18 h
[4] = test system: K. pneumoniae 10031; assay: In vitro antibacterial activity (MIC), K. pneumoniae 10031; conditions: Klebsiella pneumoniae, 10031, 18 h
[5] = test system: Plasmodium berghei KBG 173; assay: Antimalarial blood schizonticidal test in mice; format: in vivo, Plasmodium berghei (infected ICR/HA Swiss mice); parameters: ΔMST (increase in mean survival time): unit: days; conditions: s.c.; for minimal effective dose: Plasmodium berghei, sc, single dose, read-out: Min. Curing Dose; for Cure/Treat at Min. Curing Dose: at the Min. Curing Dose
From the text: In addition, the invention provides compounds which have antimalarial activity in vivo as evidenced by a standard blood schizonticidal test in mice infected with Plasmodium berghei KBG 173.
Utilizing young ICR/HA Swiss mice and a standard inoculum of Plasmodium berghei KBG 173, it is possible to produce a uniform disease fatal to 100% of untreated animals within 6 to 8 days with a mean survival time of 6.2 days. Test animals weigh from 18 to 22 grams but weight variations in any given experimental or control group are confined to 2-3 grams. All animals in any given test are approximately of the same age. Animals on test are housed in metal-topped plastic cages, given a standard laboratory diet and water ad libitum.
Test animals receive an intraperitoneal injection of 0.5 ml. of 1:100 dilution of heparinized heart's blood with a minimum of 90% parasitized cells (4 × 10^7 cells), drawn from donor mice infected one week earlier with Plasmodium berghei. The donor strain is maintained by weekly passages in separate groups of mice inoculated with a 0.5 ml. of 1:500 dilution of heparinized heart's blood.
Test compounds are administered after dissolution or suspension in peanut oil. A single dose is given subcutaneously 72 hours after the mice are infected with Plasmodium berghei. At this time a 10-15 percent parasitemia has developed; the disease is well established but has not produced sufficient debility to alter the response of the host to toxic effects of the drug on test. Since treatment is withheld for three days to permit the infection to become well established and death occurs in untreated controls within 6-8 days, it is felt that this system presents a candidate compound with the maximum challenge. In order to check factors such as changes in the infectivity of Plasmodium berghei or in the susceptibility of the host or to detect technical errors, a group of infected animals treated with pyrimethamine at dose levels producing definite increases in survival time is included in a positive control in every experiment.
In each experiment test compounds are administered in graded dosages. […] However, if an active drug is toxic for the host, its toxicity may become a limiting factor; continued increases in dose levels also increase the toxic effects and may result in the diminution of survival times. Deaths prior to the sixth day, when untreated controls begin to die, are regarded as nonparasitic and become the basis for toxicity evaluations. […] In calculating mean survival time, toxic deaths and 60-day survivors are not included.
Compounds are considered active which produce a cure in at least one test animal or which produce significant increases in mean survival times of the treated animals as compared with the mean survival times of untreated controls, provided that no drug related deaths (toxicity) are noted at the active dose.

[6] = test system: S. aureus Smith; assay: In vitro antibacterial activity (MIC), S. aureus Smith; conditions: Staphylococcus aureus, 18 h
[7] = test system: S. aureus 53-180; assay: In vitro antibacterial activity (MIC), S. aureus 53-180; conditions: Staphylococcus aureus, 53180, 18 h
[8] = test system: S. paratyphi 11737; assay: In vitro antibacterial activity (MIC), S. paratyphi 11737; format: cell-based; conditions: Salmonella enterica, 18 h

Row | SMILES | MIC [1] [µg/mL] | MIC [2] [µg/mL] | MIC [3] [µg/mL] | MIC [4] [µg/mL] | minimal effective dose ([5]; 1440 h, 60-day survivors) [mg/kg] | Cure/Treat at Min. Curing Dose ([5]; 60-day survivors) | ΔMST (increase in mean survival time) ([5]; dose 2.5 mg. per kg.) | MIC [6] [µg/mL] | MIC [7] [µg/mL] | MIC [8] [µg/mL] | ΔMST (increase in mean survival time) ([5]; dose 20 mg. per kg.) | minimal effective dose ([5]; 336 h, alive on day 14 considered cured, no 60-day data) [mg/kg] | Cure/Treat at Min. Curing Dose ([5]; alive on day 14 considered cured) | ΔMST (increase in mean survival time) ([5]; dose 40 mg. per kg.) | ΔMST (increase in mean survival time) ([5]; dose 320 mg. per kg.) | ΔMST (increase in mean survival time) ([5]; dose 160 mg. per kg.)
1 | Nc1nc(N)c2c(ccc3c2ccn3Cc2cccc(C(F)(F)F)c2)n1 [Example 12] | 62.5 (≈ 175 µM) | 0.976 (≈ 2.73 µM) | 0.122 (≈ 0.341 µM) | 0.488 (≈ 1.37 µM) | 5 | 1/5 | 7.5 | 0.488 (≈ 1.37 µM) | 0.244 (≈ 0.683 µM) | 7.81 (≈ 21.9 µM) |  |  |  |  |  | 
2 | CC(=O)c1ccc(-n2ccc3c4c(N)nc(N)nc4ccc32)cc1 [Example 71] | 15.6 (≈ 49.2 µM) | 0.976 (≈ 3.08 µM) | 0.031 (≈ 0.0977 µM) | 0.122 (≈ 0.384 µM) | 40 | 1/5 |  | 1.95 (≈ 6.14 µM) | 0.488 (≈ 1.54 µM) | 7.81 (≈ 24.6 µM) | 8.8 |  |  |  |  | 
3 | Nc1nc(N)c2c(ccc3c2ccn3-c2ccc([N+](=O)[O-])cn2)n1 [Example 82] | > 250 | > 250 | 0.031 (≈ 0.0965 µM) | 31.3 (≈ 97.4 µM) |  |  |  | 0.976 (≈ 3.04 µM) | 3.9 (≈ 12.1 µM) | > 250 |  | 160 | 1/5 |  |  | 
4 | Nc1nc(N)c2c(ccc3c2ccn3CC2CCCCC2)n1 [Example 54] | 3.9 (≈ 13.2 µM) | 1.95 (≈ 6.6 µM) | 0.0152 (≈ 0.0515 µM) | 0.488 (≈ 1.65 µM) |  |  |  | 7.81 (≈ 26.4 µM) | 3.9 (≈ 13.2 µM) | 7.81 (≈ 26.4 µM) |  |  |  | 8.5 |  | 
5 | CC(C)CCn1ccc2c3c(N)nc(N)nc3ccc21 [Example 66, 7-(3-Methylbutyl)-7H-pyrrolo[3,2-f]quinazoline-1,3-diamine] | 3.9 (≈ 14.5 µM) | 0.976 (≈ 3.62 µM) | 0.0038 (≈ 0.0141 µM) | 0.244 (≈ 0.906 µM) |  |  |  | 1.95 (≈ 7.24 µM) | 0.976 (≈ 3.62 µM) | 3.9 (≈ 14.5 µM) |  |  |  |  | 8.1 | 
6 | Nc1nc(N)c2c(ccc3c2ccn3Cc2ccc3c(c2)OCO3)n1 [Example 38] | 31.3 (≈ 93.9 µM) | 7.81 (≈ 23.4 µM) | 0.244 (≈ 0.732 µM) | 1.95 (≈ 5.85 µM) | 10 | 2/5 | 12.2 | 7.81 (≈ 23.4 µM) | 1.95 (≈ 5.85 µM) | 15.6 (≈ 46.8 µM) |  |  |  |  |  | 
7 | Cc1ccccc1Cn1ccc2c3c(N)nc(N)nc3ccc21 [Example 19] | 7.81 (≈ 25.7 µM) | 0.976 (≈ 3.22 µM) | 0.0152 (≈ 0.0501 µM) | 0.122 (≈ 0.402 µM) | 40 | 3/5 |  | 0.488 (≈ 1.61 µM) | 0.488 (≈ 1.61 µM) | 3.9 (≈ 12.9 µM) |  |  |  | 8.4 |  | 
8 | CC(C)=CCn1ccc2c3c(N)nc(N)nc3ccc21 [Example 55] | 7.81 (≈ 29.2 µM) | 3.9 (≈ 14.6 µM) | 0.0038 (≈ 0.0142 µM) | 0.488 (≈ 1.83 µM) | 640 | 3/5 |  | 1.95 (≈ 7.29 µM) | 0.976 (≈ 3.65 µM) | 7.81 (≈ 29.2 µM) |  |  |  |  | 9.3 | 
9 | Cc1cc2c(ccc3nc(N)nc(N)c32)[nH]1 [Example 98, 8-Methyl-7H-pyrrolo[3,2-f]quinazoline-1,3-diamine] | 15.6 (≈ 73.2 µM) | 3.9 (≈ 18.3 µM) | 1.95 (≈ 9.14 µM) | 3.9 (≈ 18.3 µM) | 160 | 3/5 |  | 31.3 (≈ 147 µM) | 31.3 (≈ 147 µM) | 15.6 (≈ 73.2 µM) |  |  |  |  |  | 13.9
